Laboratory results from patent publication US20260262643A1, “HERBICIDAL BENZOXAZINES” (FMC CORPORATION, priority 2022, published 2026).

Columns and labels:
soybean [1] = experiment: Test C postemergence; format: in vivo, Glycine max; details: 10 days
How it was run: (§1)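 Greenhouse herbicide screen, 10-day duration. Test chemicals in solvent/surfactant blend were sprayed onto soil at sowing (pre) or onto 2–10 cm seedlings at one to two leaves (post); injury scored visually against controls, 0 no effect to 100 complete control.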

ryegrass, Italian [2] = experiment: Test C postemergence; format: in vivo, Lolium multiflorum; details: 10 days
How it was run: as §1

corn [3] = experiment: Test C preemergence; format: in vivo, Zea mays; details: 0 to 100 scale (0 no effect, 100 complete control)
How it was run: as §1

soybean [4] = experiment: Test C preemergence; format: in vivo, Glycine max; details: 0 to 100 scale (0 no effect, 100 complete control)
How it was run: as §1

wheat [5] = experiment: Test C preemergence; format: in vivo, Triticum aestivum; details: 0 to 100 scale (0 no effect, 100 complete control)
How it was run: as §1

ryegrass, Italian [6] = experiment: Test C preemergence; format: in vivo, Lolium multiflorum; details: 0 to 100 scale (0 no effect, 100 complete control)
How it was run: as §1

pigweed, palmer [7] = experiment: Test C postemergence; format: in vivo, Amaranthus palmeri; details: Postemergence, 500 g ai/ha, 10 days, visual 0 to 100 scale (0 no effect, 100 complete control)
How it was run: as §1

barnyardgrass [8] = experiment: Test D flooded paddy test; format: in vivo, Echinochloa crus-galli; details: 250 g ai/ha, applied to paddy water, visual rating after 13 to 14 days, scale 0 to 100 (0 no effect, 100 complete control)
Experimental: (§2) Plant species in the flooded paddy test selected from barnyardgrass (Echinochloa crus-galli), ducksalad (Heteranthera limosa), rice (Oryza sativa), and sedge, umbrella (small-flower umbrella sedge, Cyperus difformis) were grown to the 2-leaf stage for testing. At time of treatment, test pots were flooded to 3 cm above the soil surface, treated by application of test compounds directly to the paddy water, and then maintained at that water depth for the duration of the test. Treated plants and controls were maintained in a greenhouse for 13 to 14 days, after which time all species were compared to controls and visually evaluated. Plant response ratings, summarized in Table D, are based on a scale of 0 to 100 where 0 is no effect and 100 is complete control. A dash (-) response means no test result.

barnyardgrass [9] = experiment: Test C preemergence; format: in vivo, Echinochloa crusgalli; details: 0 to 100 scale (0 no effect, 100 complete control)
How it was run: as §1

wheat [10] = experiment: Test C postemergence; format: in vivo, Triticum aestivum; details: 10 days
How it was run: as §1

oat, wild [11] = experiment: Test C preemergence; format: in vivo, Avena fatua; details: 0 to 100 scale (0 no effect, 100 complete control)
How it was run: as §1

blackgrass [12] = experiment: Test C preemergence; format: in vivo, Alopecurus myosuroides; details: 0 to 100 scale (0 no effect, 100 complete control)
How it was run: as §1

barnyardgrass [13] = experiment: Test C postemergence; format: in vivo, Echinochloa crusgalli; details: 10 days
How it was run: as §1

blackgrass [14] = experiment: Test C postemergence; format: in vivo, Alopecurus myosuroides; details: 10 days
How it was run: as §1

ragweed [15] = experiment: Test C preemergence; format: in vivo, Ambrosia artemisiifolia; details: 0 to 100 scale (0 no effect, 100 complete control)
How it was run: as §1

kochia [16] = experiment: Test C postemergence; format: in vivo, Bassia scoparia; details: 10 days
How it was run: as §1

kochia [17] = experiment: Test C preemergence; format: in vivo, Bassia scoparia; details: 0 to 100 scale (0 no effect, 100 complete control)
How it was run: as §1

ducksalad = experiment: Test D flooded paddy test; format: in vivo, Heteranthera limosa; details: 250 g ai/ha, applied to paddy water, visual rating after 13 to 14 days, scale 0 to 100 (0 no effect, 100 complete control)
Experimental: as §2

horseweed = experiment: Test C postemergence; format: in vivo, Erigeron canadensis; details: 10 days
How it was run: as §1

green foxtail = experiment: Test C preemergence; format: in vivo, Setaria viridis; details: 0 to 100 scale (0 no effect, 100 complete control)
How it was run: as §1

pigweed, palmer [18] = experiment: Test C preemergence; format: in vivo, Amaranthus palmeri; details: 0 to 100 scale (0 no effect, 100 complete control)
How it was run: as §1

sedge, umbrella = experiment: Test D flooded paddy test; format: in vivo, Cyperus difformis; details: 250 g ai/ha, applied to paddy water, visual rating after 13 to 14 days, scale 0 to 100 (0 no effect, 100 complete control)
Experimental: as §2

galium = experiment: Test C postemergence; format: in vivo, Galium aparine; details: 10 days
How it was run: as §1

corn [19] = experiment: Test C postemergence; format: in vivo, Zea mays; details: 10 days
How it was run: as §1

ragweed [20] = experiment: Test C postemergence; format: in vivo, Ambrosia artemisiifolia; details: 10 days
How it was run: as §1

rice = experiment: Test D flooded paddy test; format: in vivo, Oryza sativa; details: 250 g ai/ha, applied to paddy water, visual rating after 13 to 14 days, scale 0 to 100 (0 no effect, 100 complete control)
Experimental: as §2

oat, wild [21] = experiment: Test C postemergence; format: in vivo, Avena fatua; details: 10 days
How it was run: as §1

[22] = 125 g ai/ha, postemergence, 0 to 100 scale, 0 no effect, 100 complete control
[23] = Postemergence, 500 g ai/ha, visual 0 to 100 scale (0 no effect, 100 complete control)
[24] = Preemergence, 500 g ai/ha, visual rating after 10 days
[25] = Test C, preemergence, 125 g ai/ha

## COC[C@H]1CN(C(=O)c2cccc(-n3cnc(C(C)(C)O)n3)c2)c2cccc(Cl)c2O1 [Compound 253]
Soybean [1]; [22]
  Plant response rating, Soybean: 100
Soybean [1]; [23]
  Plant response rating, Soybean: 100
ryegrass, Italian [2]; [22]
  Plant response rating, Ryegrass, Italian: 50
ryegrass, Italian [2]; [23]
  Plant response rating, Ryegrass, Italian: 50
Corn [3]; [24]
  Plant response rating, Corn: 10
Corn [3]; [25]
  Corn plant response rating: 0
Soybean [4]; [24]
  Plant response rating, Soybean: 80
Soybean [4]; [25]
  Soybean plant response rating: 40
Wheat [5]; [24]
  Plant response rating, Wheat: 50
Wheat [5]; [25]
  Wheat plant response rating: 0
ryegrass, Italian [6]; [24]
  Plant response rating, Ryegrass, Italian: 60
ryegrass, Italian [6]; [25]
  Ryegrass, Italian plant response rating: 40
pigweed, palmer [7]
  Plant response rating, Pigweed, Palmer: 70
Barnyardgrass [8]
  Plant response rating, Barnyardgrass (Flood): 0
Barnyardgrass [9]; [24]
  Plant response rating, Barnyardgrass: 60
Barnyardgrass [9]; [25]
  Barnyardgrass plant response rating: 50
Wheat [10]; [22]
  Plant response rating, Wheat: 20
Wheat [10]; [23]
  Plant response rating, Wheat: 70
oat, wild [11]; [24]
  Plant response rating, Oat, Wild: 90
oat, wild [11]; [25]
  Oat, Wild plant response rating: 30
Blackgrass [12]; [24]
  Plant response rating, Blackgrass: 50
Blackgrass [12]; [25]
  Blackgrass plant response rating: 20
Barnyardgrass [13]; [22]
  Plant response rating, Barnyardgrass: 20
Barnyardgrass [13]; [23]
  Plant response rating, Barnyardgrass: 30
Blackgrass [14]; [22]
  Plant response rating, Blackgrass: 40
Blackgrass [14]; [23]
  Plant response rating, Blackgrass: 80
Ragweed [15]; [24]
  Plant response rating, Ragweed: 80
Ragweed [15]; [25]
  Ragweed plant response rating: 20
Kochia [16]; [22]
  Plant response rating, Kochia: 80
Kochia [16]; [23]
  Plant response rating, Kochia: 80
Kochia [17]; [24]
  Plant response rating, Kochia: 80
Kochia [17]; [25]
  Kochia plant response rating: 60
ducksalad
  Plant response rating, Ducksalad (Flood): 85
horseweed; [22]
  Plant response rating, Horseweed: 0
horseweed; [23]
  Plant response rating, Horseweed: 20
Green foxtail; [24]
  Plant response rating, Foxtail, Green: 100
Green foxtail; [25]
  Foxtail, Green plant response rating: 80
pigweed, palmer [18]; [24]
  Plant response rating, Pigweed, Palmer: 100
pigweed, palmer [18]; [25]
  Pigweed, Palmer plant response rating: 90
sedge, umbrella
  Plant response rating, Sedge, Umbrella (Flood): 70
galium; [22]
  Plant response rating, Galium: 100
galium; [23]
  Plant response rating, Galium: 100
Corn [19]; [22]
  Plant response rating, Corn: 20
Corn [19]; [23]
  Plant response rating, Corn: 80
Ragweed [20]; [22]
  Plant response rating, Ragweed: 70
Ragweed [20]; [23]
  Plant response rating, Ragweed: 70
rice
  Plant response rating, Rice (Flood): 10
oat, wild [21]; [22]
  Plant response rating, Oat, Wild: 50
oat, wild [21]; [23]
  Plant response rating, Oat, Wild: 90
